Laboratory results taken from the NIST ThermoML archive (doi:10.1021/acs.jced.6b00687).
Numbers after ± are expanded uncertainties.

Test: xn = mol fraction of the nth substance listed
Details: Gas, Buoyancy - hydrostatic balance with magnetic suspension - two sinkers

[Ar] [argon] + O=C=O
Details | mass density [kg/m3]
273.15 K, 510.11 kPa, x2 = 0.7509 | 9.89648 ± 0.0044
273.15 K, 511.42 kPa, x2 = 0.5 | 9.60258 ± 0.0043
273.15 K, 1005.7 kPa, x2 = 0.7509 | 20.0055 ± 0.0078
273.15 K, 1013.1 kPa, x2 = 0.5 | 19.3275 ± 0.0073
273.15 K, 2007.3 kPa, x2 = 0.7509 | 42.2195 ± 0.015
273.15 K, 2996.7 kPa, x2 = 0.7509 | 67.1561 ± 0.026
273.15 K, 3008.4 kPa, x2 = 0.5 | 61.4185 ± 0.022
273.15 K, 4022.5 kPa, x2 = 0.7509 | 97.4841 ± 0.045
273.15 K, 4488.6 kPa, x2 = 0.7509 | 113.378 ± 0.053
273.15 K, 5000.6 kPa, x2 = 0.7509 | 133.062 ± 0.059
273.15 K, 5017 kPa, x2 = 0.5 | 110.665 ± 0.05
273.15 K, 6031.1 kPa, x2 = 0.5 | 138.861 ± 0.047
273.15 K, 6410 kPa, x2 = 0.5 | 150.086 ± 0.05
283.15 K, 508.18 kPa, x2 = 0.7509 | 9.48215 ± 0.0043
283.15 K, 1002 kPa, x2 = 0.7509 | 19.109 ± 0.0073
283.15 K, 2002.5 kPa, x2 = 0.7509 | 40.0616 ± 0.014
283.15 K, 2989.1 kPa, x2 = 0.7509 | 63.047 ± 0.022
283.15 K, 3992.2 kPa, x2 = 0.7509 | 89.5274 ± 0.036
283.15 K, 4988.1 kPa, x2 = 0.7509 | 120.07 ± 0.063
283.15 K, 6073.3 kPa, x2 = 0.7509 | 160.561 ± 0.096
283.15 K, 6588 kPa, x2 = 0.7509 | 183.67 ± 0.17
283.15 K, 7263.8 kPa, x2 = 0.7509 | 219.753 ± 0.21
293.15 K, 502.06 kPa, x2 = 0.7509 | 9.02478 ± 0.0042
293.15 K, 1001.8 kPa, x2 = 0.7509 | 18.3618 ± 0.0071
293.15 K, 2024.4 kPa, x2 = 0.7509 | 38.7149 ± 0.014
293.15 K, 3001.1 kPa, x2 = 0.7509 | 60.0081 ± 0.021
293.15 K, 4009 kPa, x2 = 0.7509 | 84.353 ± 0.03
293.15 K, 4996.8 kPa, x2 = 0.7509 | 111.184 ± 0.044
293.15 K, 6024 kPa, x2 = 0.7509 | 143.207 ± 0.068
293.15 K, 7049 kPa, x2 = 0.7509 | 180.86 ± 0.11
293.15 K, 8016.8 kPa, x2 = 0.7509 | 223.61 ± 0.17
293.15 K, 9051.1 kPa, x2 = 0.7509 | 279.404 ± 0.24
298.15 K, 505.28 kPa, x2 = 0.5 | 8.65443 ± 0.21
298.15 K, 1014.6 kPa, x2 = 0.5 | 17.5824 ± 0.4
298.15 K, 2019.2 kPa, x2 = 0.5 | 35.8258 ± 0.013
298.15 K, 3020.7 kPa, x2 = 0.5 | 54.9064 ± 0.42
298.15 K, 4024.4 kPa, x2 = 0.5 | 75.0005 ± 2.1
298.15 K, 5017 kPa, x2 = 0.5 | 95.8895 ± 5.1
298.15 K, 6025.4 kPa, x2 = 0.5 | 118.229 ± 0.04
298.15 K, 7045.2 kPa, x2 = 0.5 | 142.007 ± 7.5
298.15 K, 8014 kPa, x2 = 0.5 | 165.743 ± 16
323.15 K, 514.24 kPa, x2 = 0.7509 | 8.34326 ± 0.004
323.15 K, 516.98 kPa, x2 = 0.4998 | 8.14761 ± 0.0039
323.15 K, 1021 kPa, x2 = 0.7509 | 16.796 ± 0.0066
323.15 K, 1022 kPa, x2 = 0.4998 | 16.244 ± 0.0064
323.15 K, 2012.2 kPa, x2 = 0.7509 | 34.0421 ± 0.014
323.15 K, 3034 kPa, x2 = 0.4998 | 49.9179 ± 0.018
323.15 K, 3036.1 kPa, x2 = 0.7509 | 52.9514 ± 0.019
323.15 K, 4037.8 kPa, x2 = 0.7509 | 72.6588 ± 0.031
323.15 K, 5040.2 kPa, x2 = 0.4998 | 85.8585 ± 0.031
323.15 K, 5061.8 kPa, x2 = 0.7509 | 94.214 ± 0.035
323.15 K, 6055.5 kPa, x2 = 0.7509 | 116.646 ± 0.053
323.15 K, 7040 kPa, x2 = 0.4998 | 124.127 ± 0.048
323.15 K, 7054.8 kPa, x2 = 0.7509 | 140.911 ± 0.055
323.15 K, 8053.7 kPa, x2 = 0.7509 | 167.037 ± 0.095
323.15 K, 9016.6 kPa, x2 = 0.4998 | 164.336 ± 0.073
323.15 K, 9045 kPa, x2 = 0.7509 | 195.026 ± 0.082
